Measurements reported in patent US20240285571A1, “METHODS OF TREATING BONE INFECTIONS” (MICROBION CORPORATION, priority 2020, published 2024).
In brackets after ≈: the same amount, converted by molar mass.

Assays:
M. abscessus (MABSC) = experiment: MIC against CF isolates (Example 7, Table 18); type: cell-based, Mycobacterium abscessus complex; conditions: Mycobacteroides abscessus
S. aureus ATCC 29213 = conditions: per CLSI M100-S24 or provided by Microbion; cited from earlier work
[1] = tested on: Cutibacterium [Propionibacterium] acnes; experiment: MIC of baseline clinical isolates (Example 8); type: cell-based; conditions: Cutibacterium (Proprionibacterium) acnes baseline isolates (N′ = 3), central laboratory, mITT
Protocol: (§1) Microbiology was assessed on Day 1 and at the time of any subsequent surgical procedure at the index site. Samples were collected from the infected bone site or involved tissue adjacent to any implant(s), swabs of the deep infection site, and the superficial tissue/wound closure/sinus tract site. […] Parallel sets of samples were analyzed by the local clinical site laboratory to guide patient antibiotic treatment.

[2] = tested on: non-speciated Anaerococcus; experiment: MIC of baseline clinical isolates (Example 8); type: cell-based; conditions: Anaerococcus non-speciated baseline isolates (N′ = 1), central laboratory, mITT
Protocol: as §1

Clostridium sphenoides = experiment: MIC of baseline clinical isolates (Example 8); type: cell-based; conditions: Clostridium sphenoides baseline isolates (N′ = 1), central laboratory, mITT
Protocol: as §1

Actinomyces turicensis = experiment: MIC of baseline clinical isolates (Example 8); type: cell-based; conditions: Actinomyces turicensis baseline isolates (N′ = 1), central laboratory, mITT
Protocol: as §1

Anaerococcus murdochii = experiment: MIC of baseline clinical isolates (Example 8); type: cell-based; conditions: Anaerococcus murdochii baseline isolates (N′ = 1), central laboratory, mITT
Protocol: as §1

Peptoniphilus gorbachii = experiment: MIC of baseline clinical isolates (Example 8); type: cell-based; conditions: Peptoniphilus gorbachii baseline isolates (N′ = 1), central laboratory, mITT
Protocol: as §1

F. magna = experiment: MIC of baseline clinical isolates (Example 8); type: cell-based; conditions: Finegoldia magna baseline isolates (N′ = 4), central laboratory, mITT
Protocol: as §1

Dermabacter hominis = experiment: MIC of baseline clinical isolates (Example 8); type: cell-based; conditions: Dermabacter hominis baseline isolates (N′ = 1), central laboratory, mITT
Protocol: (§2) Microbiology was assessed on Day 1 and at the time of any subsequent surgical procedure at the index site. Samples were collected from the infected bone site or involved tissue adjacent to any implant(s), swabs of the deep infection site, and the superficial tissue/wound closure/sinus tract site. Isolation and identification of aerobic and anerobic bacteria was conducted at a central microbiology laboratory (IHMA, Schaumburg, IL) and susceptibility of the isolates to MBN-101 (BisEDT) and comparator agents was performed per Clinical and Laboratory Standards Institute (CLSI). Parallel sets of samples were analyzed by the local clinical site laboratory to guide patient antibiotic treatment.

Corynebacterium jeikeium = experiment: MIC of baseline clinical isolates (Example 8); type: cell-based; conditions: Corynebacterium jeikeium baseline isolates (N′ = 2), central laboratory, mITT
Protocol: as §2

[3] = tested on: Corynebacterium resistens; experiment: MIC of baseline clinical isolates (Example 8); type: cell-based; conditions: Corynebacterium resistens baseline isolates (N′ = 1), central laboratory, mITT
Protocol: as §2

[4] = tested on: non-speciated Corynebacterium; experiment: MIC of baseline clinical isolates (Example 8); type: cell-based; conditions: Corynebacterium non-speciated baseline isolates (N′ = 2), central laboratory, mITT
Protocol: as §2

Streptococcus oralis = experiment: MIC of baseline clinical isolates (Example 8); type: cell-based; conditions: Streptococcus oralis baseline isolates (N′ = 1), central laboratory, mITT
Protocol: as §2

[5] = tested on: Corynebacterium amycolatum; experiment: MIC of baseline clinical isolates (Example 8); type: cell-based; conditions: Corynebacterium amycolatum baseline isolates (N′ = 1), central laboratory, mITT
Protocol: as §2

For CC[C@H]1OC(=O)[C@H](C)[C@@H](O[C@H]2C[C@@](C)(OC)[C@@H](O)[C@H](C)O2)[C@H](C)[C@@H](O[C@@H]2O[C@H](C)C[C@H](N(C)C)[C@H]2O)[C@](C)(OC)C[C@@H](C)C(=O)[C@H](C)[C@@H](O)[C@]1(C)O [Clarithromycin, reference compound], the MIC (M. abscessus (MABSC); strain AMT0068-40, M abscessus/massiliense complex) is given as 1 µg/mL (≈ 1.34 µM), the MIC (M. abscessus (MABSC); strain AMT0119-7, M abscessus/massiliense complex) is given as 1 µg/mL (≈ 1.34 µM) and the “MIC, acceptable range” value (S. aureus ATCC 29213) is given as 0.12 to 0.5 µg/mL. The “MIC, expected results” value (S. aureus ATCC 29213) was 0.25 µg/mL (≈ 0.334 µM).

In the case of CCN1CCN(C(=O)N[C@@H](C(=O)N[C@@H]2C(=O)N3[C@@H]2SC(C)(C)[C@@H]3C(=O)O)c2ccccc2)C(=O)C1=O.C[C@]1(Cn2ccnn2)[C@H](C(=O)O)N2C(=O)C[C@H]2S1(=O)=O [TZP], the “Mean MIC” value [1] is reported as 0.29 µg/mL, the “n (% resistant)” value [1] is reported as 0 (0.0) n (%) and the “n (% resistant)” value [2] is reported as 0 (0.0) n (%). For the same molecule, the “Mean MIC” value (Clostridium sphenoides) was 16.00 µg/mL, the “n (% resistant)” value (Clostridium sphenoides) was 0 (0.0) n (%) and the “Mean MIC” value (Actinomyces turicensis) was 1.00 µg/mL. For the same molecule, the “n (% resistant)” value (Actinomyces turicensis) was 0 (0.0) n (%), the “Mean MIC” value (Anaerococcus murdochii) was 0.50 µg/mL and the “n (% resistant)” value (Anaerococcus murdochii) was 0 (0.0) n (%). The “Mean MIC” value (Peptoniphilus gorbachii) was 0.03 µg/mL, the “n (% resistant)” value (Peptoniphilus gorbachii) was 0 (0.0) n (%) and the “Mean MIC” value (F. magna) was 0.34 µg/mL. For the same molecule, the “n (% resistant)” value (F. magna) was 0 (0.0) n (%), the “Mean MIC” value (Dermabacter hominis) was 0.50 µg/mL and the “n (% resistant)” value (Dermabacter hominis) was 0 (0.0) n (%). For the same molecule, the “Mean MIC” value (Corynebacterium jeikeium) was 1.00 µg/mL, the “n (% resistant)” value (Corynebacterium jeikeium) was 0 (0.0) n (%) and the “Mean MIC” value [3] was 1.00 µg/mL. For the same molecule, the “n (% resistant)” value [3] was 0 (0.0) n (%), the “Mean MIC” value [4] was 1.00 µg/mL and the “n (% resistant)” value [4] was 0 (0.0) n (%). The “Mean MIC” value (Streptococcus oralis) was 0.06 µg/mL, the “n (% resistant)” value (Streptococcus oralis) was 0 (0.0) n (%) and the “Mean MIC” value [5] was 1.00 µg/mL. For the same molecule, the “n (% resistant)” value [5] was 0 (0.0) n (%).
